One assay relates to SN12K1. The experiment in a line: cells. The format is functional. Conditions: Homo sapiens.
Another assay relates to P388. Nature of the assay: cells. It is filed as functional. The conditions noted are these: Mus musculus.
The next assay has as its system P388/ADR. Nature of the assay: cells. The format is functional. Conditions: Mus musculus.
Assay [1] can be described thus: Luminescence Cell-Based Dose Retest to Confirm Inhibitors of Cancer Stem Cells. [Related pubchem assays (depositor defined):AID2717, AID2721]. The format is functional. Conditions: Homo sapiens.
Assay [2] can be described thus: HEK-293T cell viability reduction – luminescence, B-cell screen hits, cytotoxicity control for BCR NF-kB inhibitor project, dose response (AID 489021).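 Also: HEK-293T cells carrying an NF-kB luciferase reporter; cells exposed to compound for about 14 hours before viability readout.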 It is filed as functional, cell-based.
A further assay concerns CHO. The experiment in a line: CHO cell viability loss, potency – luminescence, cytotoxicity control for TLR9-MyD88 binding inhibitor project, dose response (AID 588339).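 Also: CHO cells stably coexpressing TLR9 and MyD88 fusions from primary screen; compound exposure lasted 48 hours before viability readout.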 The format is functional, cell-based, hamster. The conditions noted are these: Cricetulus griseus.
For assay [3], the system named is BJ. Nature of the assay: growth inhibition of engineered Ras-driven BJ cells – cell-based, alamar blue fluorescence, cherrypicked samples, dose response (AID 2631).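 Also: confirmatory dose-response assay in RAS-dependent BJ fibroblasts engineered with TERT, LT and ST, with cytotoxicity read by fluorescence.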 The format is functional. The conditions noted are these: Homo sapiens. On the technique in general: Resazurin is reduced to fluorescent resorufin, in cell work by metabolically active cells.
Assay [4] deals with BJ. Nature of the assay: BJ-TERT fibroblast viability loss – cell-based, RAS-independent, luminescence, dose response (AID 1933). The format is functional. Conditions: Homo sapiens.
A short description of assay [5]: DRD fibroblast viability loss – cell-based, non-viral oncogenic, luminescence, dose response (AID 1934). It is filed as functional. The conditions noted are these: Homo sapiens.
In assay [6] the test system is BJ. Nature of the assay: cells. The format is functional, cell-based. The conditions noted are these: Homo sapiens.
For assay [7], the system named is BJ. Nature of the assay: BJ-TERT-LT-ST fibroblast viability loss – cell-based, RAS-independent, luminescence, dose response (AID 1935).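 Also: BJ fibroblasts immortalized with TERT plus LT and ST oncogenes.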 Conditions: Homo sapiens. It is filed as functional.
Assay [8] can be described thus: Luminescence Cell-Based Dose Confirmation HTS to Identify Inhibitors of Platelet Dense Granule Release. [Related pubchem assays: 1663 (Primary HTS), 1678 (Summary of Project)]. It is filed as functional.
In a further assay the test system is HEK293. The experiment in a line: EBV LMP1 TES2 canonical NF-kB signalling blockers – cell-based, HEK293, luciferase, cherry-pick, dose response (AID 588343). The format is functional. Conditions: Homo sapiens.
Assay [9] deals with Luciferin 4-monooxygenase (Photinus pyralis, UniProt P08659). Nature of the assay: inhibition of purified Photinus pyralis luciferase – biochemical, luminescence, dose response (AID 1891).
Chain of Luciferin 4-monooxygenase (P08659 whole entry): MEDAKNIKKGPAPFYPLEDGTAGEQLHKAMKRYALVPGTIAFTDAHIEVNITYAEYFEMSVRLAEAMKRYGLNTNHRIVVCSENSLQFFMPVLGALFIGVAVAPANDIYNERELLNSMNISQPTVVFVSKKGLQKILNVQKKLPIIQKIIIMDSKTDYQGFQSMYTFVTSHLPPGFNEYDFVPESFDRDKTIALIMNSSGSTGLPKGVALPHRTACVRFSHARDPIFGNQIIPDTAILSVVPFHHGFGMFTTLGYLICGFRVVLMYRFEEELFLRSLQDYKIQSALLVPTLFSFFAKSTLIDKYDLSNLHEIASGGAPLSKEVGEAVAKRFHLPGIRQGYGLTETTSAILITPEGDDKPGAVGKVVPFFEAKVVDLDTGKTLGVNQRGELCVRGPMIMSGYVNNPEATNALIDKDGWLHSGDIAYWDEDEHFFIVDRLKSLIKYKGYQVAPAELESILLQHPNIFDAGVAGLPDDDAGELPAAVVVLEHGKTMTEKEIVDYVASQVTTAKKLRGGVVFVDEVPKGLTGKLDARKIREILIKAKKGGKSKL
In a further assay the target is Beta-galactosidase (Escherichia coli, UniProt Q8VNN2). The experiment in a line: PubChem AID 485352. It is filed as functional.
Chain of Beta-galactosidase (Q8VNN2 whole entry): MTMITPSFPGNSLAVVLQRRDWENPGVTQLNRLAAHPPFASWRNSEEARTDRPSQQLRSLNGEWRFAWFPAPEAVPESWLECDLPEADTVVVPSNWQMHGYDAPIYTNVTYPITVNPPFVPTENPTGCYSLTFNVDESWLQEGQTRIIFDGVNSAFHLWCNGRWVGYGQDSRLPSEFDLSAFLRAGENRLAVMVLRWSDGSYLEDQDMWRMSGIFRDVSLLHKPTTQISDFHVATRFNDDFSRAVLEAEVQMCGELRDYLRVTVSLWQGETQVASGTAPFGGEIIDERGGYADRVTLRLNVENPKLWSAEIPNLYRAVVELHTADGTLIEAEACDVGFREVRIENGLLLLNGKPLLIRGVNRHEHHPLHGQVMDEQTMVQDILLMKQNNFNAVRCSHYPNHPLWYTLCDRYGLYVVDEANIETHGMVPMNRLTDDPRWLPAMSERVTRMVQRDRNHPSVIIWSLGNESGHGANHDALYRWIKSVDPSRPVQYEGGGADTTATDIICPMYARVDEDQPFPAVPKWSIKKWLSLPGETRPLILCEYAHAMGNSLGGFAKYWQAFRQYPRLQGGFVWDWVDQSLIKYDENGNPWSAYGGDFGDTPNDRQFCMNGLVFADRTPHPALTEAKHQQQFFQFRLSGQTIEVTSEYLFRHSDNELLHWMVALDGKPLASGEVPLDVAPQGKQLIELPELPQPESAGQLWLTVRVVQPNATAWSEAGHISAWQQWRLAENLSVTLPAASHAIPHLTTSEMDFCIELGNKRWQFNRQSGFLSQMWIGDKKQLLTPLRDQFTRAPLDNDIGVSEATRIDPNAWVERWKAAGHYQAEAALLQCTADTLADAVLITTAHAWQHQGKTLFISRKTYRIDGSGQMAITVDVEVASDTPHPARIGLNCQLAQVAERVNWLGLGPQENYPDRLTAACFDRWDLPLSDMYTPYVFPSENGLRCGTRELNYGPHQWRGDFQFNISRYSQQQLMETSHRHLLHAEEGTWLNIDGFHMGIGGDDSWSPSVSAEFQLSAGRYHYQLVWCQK
Assay [10] concerns the target T1, Type-1 angiotensin II receptor (Homo sapiens, UniProt P30556).
T1 sequence (P30556 whole entry): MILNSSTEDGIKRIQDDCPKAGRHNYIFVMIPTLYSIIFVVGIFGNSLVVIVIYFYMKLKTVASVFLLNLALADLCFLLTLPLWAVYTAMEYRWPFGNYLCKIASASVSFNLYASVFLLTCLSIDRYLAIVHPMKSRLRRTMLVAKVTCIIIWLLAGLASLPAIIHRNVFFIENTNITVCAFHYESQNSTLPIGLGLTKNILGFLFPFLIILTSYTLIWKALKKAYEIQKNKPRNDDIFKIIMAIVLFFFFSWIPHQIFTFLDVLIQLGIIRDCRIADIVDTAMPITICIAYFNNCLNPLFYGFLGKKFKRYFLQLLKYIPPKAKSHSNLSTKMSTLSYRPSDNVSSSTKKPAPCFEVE
The experiment in a line: antagonism of angiotensin II type 1 receptor – cell-based, uHTS hits, selectivity assay for APJ receptor antagonist project, dose response (AID 463214).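 Also: antagonist potency against angiotensin II stimulated AT1 response.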 It is filed as functional.

The nature of assay [11]: fluconazole-exposed Candida albicans growth modulators – fluorescence, retest, confirmation (AID 2467). It is filed as functional, cell-based.
Assay [12] in a line: NIH-3T3 fibroblast cytotoxicity, dose response, cytotoxicity control, cell-based, fluorescence, Alamar Blue, secondary assay (AID 2327).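 Also: NIH-3T3 mouse fibroblasts cultured with fluconazole at 8 µg/mL.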 It is filed as functional.
Assay [13] addresses ATP-dependent molecular chaperone HSP82 (Candida albicans (strain WO-1) (Yeast), UniProt C4YTQ8). Nature of the assay: steroid-induced GRE reporter decrease in yeast – S. cerevisiae, luminescence, Hsp90 inhibitor project, dose response (AID 2400).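 Also: beta-galactosidase luminescence from glucocorticoid response element reporter as proxy for Hsp90 function; inhibitor potency where signal loss means Hsp90 inhibition.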 The format is functional, cell-based.
The target in assay [14] is T2, Serine/threonine-protein phosphatase (Candida dubliniensis (strain CD36 / CBS 7987 / NCPF 3949 / NRRLY-17841) (Yeast), UniProt B9W6M3).
T2 sequence (B9W6M3 whole entry): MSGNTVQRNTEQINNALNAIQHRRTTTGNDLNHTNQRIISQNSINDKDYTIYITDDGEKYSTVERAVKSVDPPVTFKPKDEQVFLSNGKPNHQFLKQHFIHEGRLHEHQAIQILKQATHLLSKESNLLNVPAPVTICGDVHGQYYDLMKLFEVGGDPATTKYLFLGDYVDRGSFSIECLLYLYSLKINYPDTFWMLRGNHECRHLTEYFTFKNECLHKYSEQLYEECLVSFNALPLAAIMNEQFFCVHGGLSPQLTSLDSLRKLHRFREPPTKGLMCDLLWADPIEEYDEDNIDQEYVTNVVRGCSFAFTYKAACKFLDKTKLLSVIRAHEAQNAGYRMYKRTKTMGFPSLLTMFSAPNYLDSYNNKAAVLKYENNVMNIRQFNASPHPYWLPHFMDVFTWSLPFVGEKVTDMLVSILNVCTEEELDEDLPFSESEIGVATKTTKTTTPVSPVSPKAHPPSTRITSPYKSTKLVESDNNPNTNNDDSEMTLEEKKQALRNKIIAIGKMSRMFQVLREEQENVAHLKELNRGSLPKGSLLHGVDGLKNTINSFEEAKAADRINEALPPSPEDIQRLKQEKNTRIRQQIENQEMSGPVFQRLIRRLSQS
Nature of the assay: blockers of CaCl2-induced CDRE-lacZ signaling – S. cerevisiae, luminescence, secondary, dose response (AID 2388).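 Also: yeast reporter cells carrying a calcineurin-responsive lacZ construct stimulated with calcium chloride; luminescent beta-galactosidase reporter signal in whole cells rather than isolated phosphatase activity; potency for inhibition where a drop in reporter signal means calcineurin blockade.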 The format is functional, cell-based.

A short description of assay [15]: cAMP pathway inhibition in counterscreen cell line – TR-FRET cAMP detection, counter-screen for MC4R biased antagonist project, dose response (AID 602305).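 Also: U2OS cells stimulated with forskolin near its EC80 as the cAMP inducer; potency is for inhibition of forskolin-stimulated cAMP signaling.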 The format is functional, cell-based. Background: A counterscreen serves to expose hits that act by an unwanted route or on another target.
The target in a further assay is Melanocortin receptor 4 (Homo sapiens, UniProt P32245). Nature of the assay: inhibitors of MC4R cAMP signaling – cell-based, TR-FRET, biased antagonists, dose response (AID 602298).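 Also: antagonist potency against agonist-stimulated cAMP production.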 It is filed as functional. (Time-resolved FRET reads energy transfer from a long-lived donor to a nearby acceptor.)
Chain of Melanocortin receptor 4 (P32245 whole entry): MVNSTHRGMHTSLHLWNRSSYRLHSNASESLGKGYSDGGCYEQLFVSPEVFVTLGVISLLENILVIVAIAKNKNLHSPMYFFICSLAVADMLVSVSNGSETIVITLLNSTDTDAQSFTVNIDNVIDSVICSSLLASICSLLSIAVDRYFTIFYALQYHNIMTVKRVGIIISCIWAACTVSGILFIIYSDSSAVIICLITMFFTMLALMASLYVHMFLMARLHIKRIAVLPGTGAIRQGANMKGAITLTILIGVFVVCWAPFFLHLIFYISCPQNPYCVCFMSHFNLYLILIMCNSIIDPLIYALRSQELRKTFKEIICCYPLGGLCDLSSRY
Assay [16] is described as follows: toxicity toward HepG2 liver cells – cell-based, plate reader, cherry-pick, antagonist series, cytotoxicity control, dose response (AID 743416). It is filed as functional.
Assay [17] can be described thus: viability loss in HEK293 cells – cell-based, plate reader, cherry-picked samples, cytotoxicity control, dose response (AID 743446). The format is functional.
A short description of assay [18]: blockade of melanocortin 4 receptor signaling – cell-based, plate reader, cherry pick, counter-screen for LGR2 antagonist project, dose response (AID 743444).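 Also: transfected HEK 293 cells stimulated with alpha-MSH peptide; potency of inhibitors of the alpha-MSH evoked signal.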 The format is functional.
Assay [19] in a line: blockers of bursicon-stimulated LGR2 cAMP reporter – cell-based, HEK293, CRE-luciferase reporter, cherry pick, set 2, dose response (AID 743343).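 Also: transfected cells were stimulated with diluted bursicon conditioned medium after compound addition.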 The format is functional.
The nature of assay [20]: A549 cell cytotoxicity, dose response, cytotoxicity control, plate reader, cherry-pick, antagonist series (AID 743412). It is filed as functional, cell-based.
A short description of assay [21]: luciferase reporter signal suppression in cells – H4 neuroglioma cells, luminescence, dose response (AID 1990). The format is functional, cell-based.
Assay [22] can be described thus: luciferase reporter signal reduction – luminescence, H4-C neuroglioblastoma cells, dose response (AID 2458).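 Also: H4 neuroglioblastoma cells stably carrying a luciferase reporter gene fusion.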 The format is functional, cell-based.
Assay [23] can be described thus: alpha-synuclein stem-loop translation blockers – luminescence, H4 neuroglioblastoma cells, dose confirmation, confirmation (AID 2454).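 Also: H4 neuroglioblastoma cells carrying an alpha-synuclein 5'UTR luciferase reporter; potency for inhibition of the luciferase signal.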 The format is functional, cell-based.
The nature of assay [24]: Luminescence Cell-Based Dose Response HTS to Identify Inhibitors of 5'UTR Stem-Loop Driven Prion Protein mRNA Translation in H4 Neuroglioblastoma Cells. [Related pubchem assays: 1827 (Project Summary), 1813 (Primary HTS)]. The format is functional.
A further assay can be described thus: cells. The format is functional, cell-based.
Assay [25] can be described thus: alpha-synuclein stem-loop luciferase translation blockers – H4 neuroglioma cells, luminescence, confirmation (AID 1988). It is filed as functional, cell-based.

The source made the active and inactive calls.

As a reminder, the GI50 is the concentration that inhibits growth by half. What is called AC50 is the concentration at which the activity in the assay is half-maximal. What is called IC50 is the point on the concentration scale where inhibition reaches its midpoint. Broadly, the EC50 is the midpoint of the concentration-response curve.

Chain of ATP-dependent molecular chaperone HSP82 (C4YTQ8 whole entry): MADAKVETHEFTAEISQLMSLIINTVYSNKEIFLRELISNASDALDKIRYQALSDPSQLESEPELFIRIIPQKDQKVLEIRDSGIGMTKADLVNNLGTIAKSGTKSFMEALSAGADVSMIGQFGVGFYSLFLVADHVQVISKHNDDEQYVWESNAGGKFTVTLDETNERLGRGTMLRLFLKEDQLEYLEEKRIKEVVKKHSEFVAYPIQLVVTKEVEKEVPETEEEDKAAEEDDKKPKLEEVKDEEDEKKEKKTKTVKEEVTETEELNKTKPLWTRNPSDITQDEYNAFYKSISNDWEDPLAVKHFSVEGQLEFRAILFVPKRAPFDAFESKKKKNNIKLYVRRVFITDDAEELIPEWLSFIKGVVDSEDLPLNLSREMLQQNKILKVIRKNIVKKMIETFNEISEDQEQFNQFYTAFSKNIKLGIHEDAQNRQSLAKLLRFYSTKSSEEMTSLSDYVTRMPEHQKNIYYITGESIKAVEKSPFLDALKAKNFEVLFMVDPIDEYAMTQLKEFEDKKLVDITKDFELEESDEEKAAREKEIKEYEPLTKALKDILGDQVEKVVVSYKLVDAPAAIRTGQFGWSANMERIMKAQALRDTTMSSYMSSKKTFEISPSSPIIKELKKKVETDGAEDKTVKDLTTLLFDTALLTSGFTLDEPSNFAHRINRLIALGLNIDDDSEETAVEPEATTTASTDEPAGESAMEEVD

For the molecule `CC[C@](C)(O)C(=O)O[C@H]1C(=O)O[C@@H]2C[C@H]3C(C)=C[C@H](O)[C@@H](O)[C@]3(C)[C@H]3[C@@]4(O)OC[C@]32[C@@H]1[C@@H](C)[C@H]4O`, the GI50 in the assay with SN12K1 is 7.19 µM (inactive); in the assay on P388, 45.3 µM (inactive); with P388/ADR, 88.5 µM (inactive).

Consider `COC(=O)c1c(-c2ccc(N(C)C)cc2)sc2ccc(OC)cc12`, for which the AC50 in assay [1] was 3.3 µM (active). For the same molecule, the IC50 is > 80 µM (inactive) in [2] and > 49.7 µM (inactive) with CHO.

As for `O=C(NCc1cccnc1)c1ccc(NC(=O)c2ccc(Br)cc2)cc1`, the AC50 in assay [1] is 1.36 µM (active). Besides, the EC50 with BJ [3] was 0.169 µM (active); in the assay with BJ [4], > 150 µM (not active); in assay [5], > 150 µM (not active); in the assay with BJ [6], 1.3 µM (inconclusive); in the assay on BJ [7] it was 14 µM (active).

Turning to `CCOc1ccc(N/C=C/C(=O)c2ccccc2)cc1`, the 50% effective concentration (EC50) is 2 µM (active) in assay [8] and 0.453 µM (active) in [9]. Further, the AC50 with HEK293 is 3.62 µM (active).

In the case of `Cc1ccc(C(=O)COC(=O)CN2C(=O)C3CC=CCC3C2=O)cc1[N+](=O)[O-]` (stereo not given), the EC50 at Beta-galactosidase is > 40 µM (inactive). In [10], the IC50 is on record as 33.6 µM (not active).

Regarding `Cn1cccc1/C=C1\CC(C(C)(C)C)C/C(=C\c2cccn2C)C1=O` (stereo not given), in the assay on HEK293, the AC50 was 160 µM (active).

As for `C=CCOC(=O)c1sc(NC(=O)c2ccco2)nc1C`, the EC50 in assay [11] is 0.544 µM (active); in assay [12], > 150 µM (inactive); in assay [13], 29.7 µM (active); in [14], > 180 µM (inactive).

As to `CCOC(=O)CSc1nnc(-c2ccc(NS(=O)(=O)c3ccc(C)cc3)cc2)o1`, the IC50 (in assay [15]; on Melanocortin receptor 4) was > 64.6 µM (inactive) each time.

Consider `Cc1ccc(-c2cc3c(nn2)-c2ccccc2C3=O)cc1`, for which the AC50 was 35.8 µM (active) in assay [16]; 18.3 µM (active) in [17]; 1.65 µM (active) in [18]; 1.11 µM (active) in [19]; 25.5 µM (active) in assay [20]. The EC50 at Beta-galactosidase was > 40 µM (inactive). The IC50 in assay [10] was 2.89 µM (active).

On to `Cc1c2cnccc2c(C)c2c1c1ccccc1n2CCCCCCNCc1ccccc1`, for which the GI50 in the assay on SN12K1 is 1.02 µM (active); in the assay with P388, 0.269 µM (active); in the assay on P388/ADR, 0.246 µM (active).

As to `CC(C)N(c1ccccc1)c1ccc(NC(=O)COC(=O)CCN2C(=O)c3cccc([N+](=O)[O-])c3C2=O)cc1`, the IC50 (in assay [15]; on Melanocortin receptor 4) was > 64.6 µM (inactive) throughout.

As to `NC1(C(=O)O)CCCC1` [CYCLOLEUCINE], the GI50 in the assay with SN12K1, in the assay with P388 and in the assay on P388/ADR was > 625 µM (inactive) throughout.

For the molecule `COc1ccc(S(=O)(=O)N2c3cc(Cl)ccc3Oc3nc4ccccc4nc32)cc1`, the EC50 in assay [21] was 3.64 µM (inconclusive); with BJ [3], < 0.104 µM (active); in [22] it was 2.41 µM (active); in assay [23], > 12 µM (not active); in assay [24] it was 7.56 µM (active); in the assay “cells”, > 12 µM (not active). Further, the EC50 in the assay with BJ [4] is 6.91 µM (inconclusive); in [5] it was 7.55 µM (inconclusive); in assay [25], < 0.1 µM (active); with BJ [6], 5.06 µM (active); in the assay on BJ [7], 3.81 µM (active).

The values are drawn from ChEMBL document CHEMBL1201862, “PubChem BioAssay data set” (2004).
